Among the data in ChEMBL document CHEMBL1137996, “Design, synthesis, and activity of 4-quinolone and pyridone compounds as nonthiol-containing farnesyltransferase inhibitors” (Bioorg Med Chem Lett, 2004) are EC50, IC50 and Inhibition values, retold here.

Assay [1] concerns the target T1, Protein farnesyltransferase (Mus musculus, UniProt Q61239+Q8K2I1). Kind of assay: Inhibition of Ras farnesylation in H-Ras transformed NIH3T3 cells. The class given is functional, cell-based.
Assay [2] concerns the target Geranylgeranyl transferase type I (Bos taurus, UniProt P29702+Q5EAD5). The assay is described as follows: Inhibition of Bovine geranylgeranyltransferase (GGT). The class given is protein-complex assay.
In assay [3] the target is Protein farnesyltransferase (Bos taurus, UniProt P29702+P49355). The assay is described as follows: Inhibition of Bovine farnesyltransferase (FTase). The class given is protein-complex assay.
Assay [4] concerns the target T1, Protein farnesyltransferase. The assay is described as follows: Inhibition of Ras farnesylation in H-Ras transformed NIH3T3 cells at 100 nM. The class given is functional, cell-based.

pEC50, pIC50: −log10 of the molar value. Where only a bound is given, the exact number is not on record here.

The pEC50 is the negative decadic logarithm of the EC50, by convention in mol/L. In turn, `Cn1cncc1[C@@](N)(c1ccc(Cl)cc1)c1ccc2c(c1)c(-c1cccc(Cl)c1)cc(=O)n2C` [TIPIFARNIB] had a pEC50 in assay [1] (nih3t3) of 8.80.
Usually pIC50 stands for −log10 of the IC50, conventionally taken in molar units. A low value points to a high IC50. For `NC(=O)N1CCC(CC(=O)N2CCC([C@H]3c4ncc(Br)cc4CCc4cc(Cl)cc(Br)c43)CC2)CC1` [LONAFARNIB], the negative-log IC50 (pIC50) was < 5.00 in assay [2] and 8.08 in assay [3]. Further, the negative logarithm of the EC50 (pEC50) in assay [1] is 7.00.
One may read the Inhibition as the drop in the measured response relative to a control, in per cent. A high value points to a strong effect. Take `Cn1c(CNCc2cncn2Cc2ccc(C#N)cc2)c(-c2cccc(Cl)c2)cc(C#N)c1=O`: in assay [4], the Inhibition worked out at 21%. The pIC50 in assay [2] is < 5.00; in assay [3], 7.77.
`Cn1cncc1C(NC(=O)c1cn(C)c(=O)cc1-c1cccc(Cl)c1)c1ccc(C#N)cc1` (stereo unspecified): the pIC50 in assay [3] was 6.16.
In assay [4] (nih3t3), `Cn1cncc1C(OCc1cc(=O)c(C#N)cn1-c1cccc(Cl)c1)c1ccc(C#N)cc1` (stereo unspecified) registered an Inhibition of 4%. Also, the negative logarithm of the IC50 (pIC50) in assay [2] was < 5.00; in assay [3], 7.92.
Take `N#Cc1ccc(Cn2cncc2CNCc2cc(=O)c(C#N)cn2-c2cccc(Cl)c2)cc1`: the negative-log IC50 (pIC50) in assay [2] is < 5.00; in assay [3] it was 8.10.
`Cn1cncc1C(O)(c1ccc(Cl)cc1)c1ccc2c(=O)c(C#N)cn(-c3cccc(Cl)c3)c2c1` (stereo unspecified) returned an Inhibition in assay [4] of 51%. Moreover, the results for the pIC50 in assay [2] and in assay [3] were 4.80 and 7.92, respectively.
